Experimental findings from ChEMBL document CHEMBL1129278, “Binding of arylpiperazines, (aryloxy)propanolamines, and tetrahydropyridylindoles to the 5-HT1A receptor: contribution of the molecular lipophilicity potential to three-dimensional quantitative structure-affinity relationship models” (J Med Chem, 1996) are described below.

The target in the test is T1, 5-hydroxytryptamine receptor 1A (Rattus norvegicus, UniProt P19327).
T1 sequence (P19327 whole entry): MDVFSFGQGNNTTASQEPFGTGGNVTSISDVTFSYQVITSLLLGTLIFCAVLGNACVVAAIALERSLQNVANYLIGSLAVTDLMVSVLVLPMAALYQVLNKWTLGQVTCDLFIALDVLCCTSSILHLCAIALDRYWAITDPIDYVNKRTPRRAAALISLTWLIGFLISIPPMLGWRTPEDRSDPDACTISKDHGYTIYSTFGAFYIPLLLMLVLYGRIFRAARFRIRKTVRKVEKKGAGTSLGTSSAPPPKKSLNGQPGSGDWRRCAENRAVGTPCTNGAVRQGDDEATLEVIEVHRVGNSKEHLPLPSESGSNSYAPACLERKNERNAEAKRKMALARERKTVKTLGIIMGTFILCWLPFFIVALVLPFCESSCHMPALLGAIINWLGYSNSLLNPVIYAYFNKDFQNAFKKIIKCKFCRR
The compound `CCCN(CCCN1C(=O)CC2(CCCC2)CC1=O)C1COc2cccc(OC)c2C1` (configuration not stated) gave a Ki of 0.501 nM.
With `CN(C)CCc1c[nH]c2ccc(O)cc12` [BUFOTENINE] the figure was 25.1 nM; with `N#Cc1ccc2[nH]cc(C3=CCNCC3)c2c1`, 16.2 nM.
With `Cc1ccc(OCC(O)CNC(C)C)c2c1CCC2` (configuration not stated) the figure was 19100 nM; with `NCCc1c[nH]c2ccc(N)cc12`, 708 nM; with `COc1ccccc1N1CCN(CCCCCc2ccccc2)CC1`, 5.62 nM.
With `CN(C)CCc1cn(C)c2ccc3c(c12)CCCO3` the figure was 2690 nM; with `COc1ccccc1N1CCN(CCCCc2ccccc2)CC1`, 1 nM; with `C=CCOc1ccccc1OCC(O)CNC(C)C` (configuration not stated) [OXPRENOLOL], 93.3 nM.
`CC(C)NCC(O)COc1cccc2[nH]ccc12` (configuration not stated) [PINDOLOL] had a Ki of 21.9 nM.
Consider `CCCN(CCCCCCN1C(=O)CC2(CCCC2)CC1=O)C1COc2cccc(OC)c2C1` (configuration not stated), for which the affinity corresponds to a Ki of 0.501 nM.
`CC(C)(C)NC[C@H](O)COc1ccccc1C1CCCC1` [PENBUTOLOL] gave a Ki of 2.4 nM.
`Cc1ccc2[nH]cc(C3=CCN(C)CC3)c2c1` had a Ki of 31.6 nM.
For `Oc1ccc2cccc(N3CCNCC3)c2c1`, the Ki was 3.31 nM.
With `COc1ccccc1N1CCN(CCCOc2cccc3ccccc23)CC1` the figure was 8.91 nM; with `CC(C)NCC(O)COc1ccccc1` (configuration not stated), 170 nM.
Next, `CN(C)CCCC1(c2ccc(F)cc2)OCc2cc(C#N)ccc21` (configuration not stated) [CITALOPRAM]: 50100 nM; `Cn1cc(CCN)c2c3c(ccc21)OCCC3`: 2630 nM.
On to `CCCN(CCC)CC(O)CO` (configuration not stated), for which the Ki is 2750 nM. This Ki and that of the compound before are within 1.5-fold of each other.
As to `O=C1c2ccccc2C(=O)N1CCN1CCN(c2ccccc2)CC1`, the Ki was 10000 nM.
Turning to `Fc1ccc2[nH]cc(C3=CCNCC3)c2c1`, the Ki was 32.4 nM.
With `CCCN(CCC)C1CCc2cccc(C(C)=O)c2C1` (configuration not stated) the figure was 0.708 nM.
With `COc1ccccc1N1CCN(CCN2C(=O)c3ccccc3C2=O)CC1` the figure was 1000 nM; with `CCCCN1CCN(c2ccccc2OC)CC1`, 129 nM; with `CC(C)(C)NC[C@H](O)COc1nsnc1N1CCOCC1` [TIMOLOL], 617 nM.
With `CCCN(CCCCN1C(=O)CC2(CCCC2)CC1=O)C1COc2cccc(O)c2C1` (stereo in doubt; 258) the figure was 0.501 nM; with `CCCN(CCCNS(=O)(=O)c1ccc(C)cc1)C1COc2cccc(OC)c2C1` (configuration not stated), 1.51 nM.
`COc1ccccc1OCC(O)CN(C)C` (configuration not stated) gave an inhibition constant Ki of 3020 nM.
`CCCN(CCCCNC(=O)c1ccccc1OC)C1COc2cccc(OC)c2C1` (configuration not stated): the affinity, expressed as Ki, was 0.501 nM.
Take `Clc1ccc2[nH]cc(C3=CCNCC3)c2c1`: the Ki is 13.2 nM.
With `CN1CCN(c2cccc3c2OCCO3)CC1` the figure was 22.9 nM; with `CCCN(CCN1C(=O)c2ccccc2C1=O)C1COc2cccc(OC)c2C1` (configuration not stated), 398 nM.
Consider `CCCN(CCCCNC(=O)c1ccc(F)cc1)C1COc2cccc(OC)c2C1` (configuration not stated), for which the Ki is 0.2 nM.
With `CNCC(O)CO` (configuration not stated) the figure was 3310 nM; with `COc1ccccc1N1CCN(CCc2ccccc2)CC1`, 1.82 nM.
Next, `CN1CC=C(c2c[nH]c3ccc([N+](=O)[O-])cc23)CC1`: 37.2 nM; `CCCN(CCCN1C(=O)c2ccccc2C1=O)C1COc2cccc(OC)c2C1` (configuration not stated): 50.1 nM; `O=C(c1ccccc1)N1CCN(c2cccc(Cl)c2)CC1`: 100000 nM.
`CCCN(CCCCN1C(=O)CC2(CCCC2)CC1=O)C1COc2ccccc2C1` (configuration not stated) gave a Ki of 1 nM. In other words, the single-digit nanomolar range.
Consider `CN1CCN(c2cccc3ccoc23)CC1`, for which the Ki was 7.94 nM.
With `NCCc1c[nH]c2ccc3c(c12)CCCO3` the figure was 302 nM; with `CCCN(CCCCNS(=O)(=O)c1ccc(C)cc1)C1COc2cccc(OC)c2C1` (configuration not stated), 1 nM.
In the case of `CNCCc1c[nH]c2ccc(O)cc12`, affinity was put at a Ki of 4.9 nM.
With `CCCCCCCCN1CCN(c2ccccc2)CC1` the figure was 11.2 nM.
`CN(C)CC(O)COc1ccccc1O` (configuration not stated) showed a Ki of 4900 nM.
`Oc1ccc2[nH]cc(C3=CCNCC3)c2c1`: the Ki was 15.1 nM.
As for `CCCN(CCCCN1CCOCC1)C1COc2cccc(OC)c2C1` (configuration not stated), the Ki is 3.98 nM.
As for `COc1ccccc1N1CCN(CCCc2ccccc2)CC1`, affinity was put at a Ki of 3.72 nM. This Ki and that of the compound before are within 1.5-fold of each other.
Next, `CN(C)CC(O)COc1cccc2ccccc12` (configuration not stated): 347 nM; `CCCN(CCC)C1CCc2ccccc2C1` (configuration not stated): 56.2 nM; `CC(C)NCC(O)COc1cccc2[nH]c(C#N)cc12` (configuration not stated): 2.14 nM.
`CCCN1CC=C(c2c[nH]c3ccc(C(=O)OC)cc23)CC1` had a Ki of 380 nM.
Next, `CCCN(CCC)C1CCc2cccc(C(=O)OC)c2C1` (configuration not stated): 1.7 nM; `COc1ccc2cccc(N3CCN(CCNC(=O)c4cccs4)CC3)c2c1`: 0.562 nM.
In turn, `CCCN(CCC)C1CCc2cccc(C(=O)O)c2C1` (configuration not stated) showed a Ki of 302 nM.
In the case of `COc1cccc2c1CC(N1CCCC1)CO2` (configuration not stated), the affinity, expressed as Ki, was 3.47 nM.
The compound `Cn1cc(C(F)(F)F)nc1-c1ccc(OCC(O)CNCCOc2ccc(O)c(C(N)=O)c2)cc1` (configuration not stated) [CGP-20712A] showed an inhibitory constant (Ki) of 603 nM.
Next, `CN1CC=C(c2c[nH]c3ccc(N)cc23)CC1`: 24500 nM; `CCCN(CCN1C(=O)CC2(CCCC2)CC1=O)C1COc2cccc(OC)c2C1` (configuration not stated): 15.1 nM; `CCCN(CCCCN1CCCCC1)C1COc2cccc(OC)c2C1` (configuration not stated): 1 nM.
Next, `CC(O)CN(CC(C)O)CC(O)COc1cccc2ccccc12` (configuration not stated): 1320 nM; `CC(C)NCC(O)COc1ccccc1-n1cccc1` (configuration not stated) [ISAMOLTAN]: 49 nM.
Next, `CC(=O)N1CCN(c2cccc(Cl)c2)CC1`: 100000 nM; `C[C@H](CCc1ccccc1)NC[C@H](O)c1ccc(O)c(C(N)=O)c1` [DILEVALOL]: 295 nM; `CC(CN)c1c[nH]c2ccc(O)cc12` (configuration not stated): 85.1 nM.
`CN(C)CCc1c[nH]c2ccc3c(c12)CCCO3` gave a Ki of 955 nM. This Ki is about 11-fold higher than that of the compound before.
Next, `COc1ccccc1N1CCN(CCCCN2C(=O)CC3(CCCC3)CC2=O)CC1`: 2 nM; `CCCN(CCC)C1CCc2cccc(OC)c2C1` (configuration not stated): 2.63 nM; `COc1ccc2[nH]cc(CCN(C)C)c2c1` [MEBUFOTENIN]: 5.5 nM.
With `CCCN(CCC)CC(O)COc1cccc2ccccc12` (configuration not stated), the Ki is 447 nM.
Turning to `Clc1cccc(N2CCN(C3CC3)CC2)c1`, the Ki is 158 nM.
With `c1ccc2cc(N3CCNCC3)ccc2c1` the figure was 3240 nM.
Compound `CCCNC1CCc2cccc(OC)c2C1` (configuration not stated) gave a Ki of 4.79 nM.
Next, `COc1ccccc1N1CCN(CCCCNc2ccc([N+](=O)[O-])c3nonc23)CC1`: 0.398 nM; `NCCCCN1CCN(c2ccccc2)CC1`: 6030 nM.
`O=C1c2ccccc2C(=O)N1CCCCN1CCN(c2ccccc2)CC1` had a Ki of 8.51 nM.
For the compound `CC(C)CN1CCN(c2cccc(Cl)c2)CC1`, the Ki was 64.6 nM.
In the case of `CCCN(CCC)C1CCc2cccc(C)c2C1` (configuration not stated), the Ki is 61.7 nM.
With `CCCN(CCC)C1COc2ccccc2C1` (configuration not stated) the figure was 200 nM; with `COc1cccc2c1CC(N1CCCCC1)CC2` (configuration not stated), 77.6 nM; with `CC(C)NCC(O)COc1cccc2[nH]c(OC(=O)OC(C)C)cc12` (configuration not stated), 17.4 nM.
Regarding `CCCN(C1COc2cccc(OC)c2C1)N1C(=O)C2CCCC2C1=O` (stereo in doubt; 255), the Ki is 0.501 nM.
As to `CN1CC=C(c2c[nH]c3ccc(C4COCCO4)cc23)CC1` (configuration not stated), the affinity corresponds to a Ki of 87.1 nM.
Next, `O=C1CC2(CCCC2)CC(=O)N1CCCN1CCN(c2ncccn2)CC1`: 214 nM; `CCCN(CCNC(C)=O)C1COc2cccc(OC)c2C1` (configuration not stated): 20 nM.
As for `CCCCCCCCN1CCN(c2cccc3c2OCCO3)CC1`, the Ki was 1 nM. This Ki is about 20-fold lower than that of the compound before.
As for `CC(C)NCC(O)COc1ccc(CCOCCOC(C)C)cc1` (configuration not stated), the Ki was 10000 nM.
`CCCN(CCC)C1CCc2cccc(CO)c2C1` (configuration not stated) gave a Ki of 129 nM.
With `CCCN(C1COc2cccc(OC)c2C1)N1C(=O)C2CCCC2C1=O` (stereo in doubt; 247) the figure was 1 nM.
Next, `O=C1CC2(CCCC2)CC(=O)N1CCN1CCN(c2ncccn2)CC1`: 151 nM; `O=C(NCCN1CCN(/C(O)=C2/COCCO2)CC1)c1ccc(F)cc1`: 9.12 nM.
With `CN(C)CC(O)CO` (stereo in doubt; 122) the figure was 5010 nM; with `CC(C)(C)NCC(O)COc1cccc2c1NC(=O)CC2` (configuration not stated), 224 nM.
As for `CCCN(CCCCN1C(=O)CC2(CCCC2)CC1=O)C1COc2cccc(O)c2C1` (stereo in doubt; 228), the Ki is 10 nM. This Ki lies about 22-fold lower than the previous one.
Next, `CCCc1ccc2c(c1CCC)CC(N(CCC)CCC)CO2` (configuration not stated): 10000 nM.
Regarding `Cc1[nH]c2ccc(O)cc2c1CCN`, the inhibition constant (Ki) is 2510 nM. Compared with the last compound, the Ki is about 4-fold lower.
In the case of `COc1ccccc1N1CCN(CCCCNC(=O)C(C)c2ccccc2)CC1` (configuration not stated), the Ki is 10 nM.
In the case of `CCCCN1CCN(c2cccc3ccccc23)CC1`, the affinity corresponds to a Ki of 7.08 nM. This Ki and that of the compound before are within 1.5-fold of each other.
Take `CC(C)(C)NCC(O)COc1cccc2c1SCCC2` (configuration not stated) [TERTATOLOL]: affinity was put at a Ki of 18.6 nM.
With `CCCN(CCC)C1CCc2cccc(C#N)c2C1` (configuration not stated) the figure was 37.2 nM; with `O=C1c2ccccc2C(=O)N1CCCCN1CCN(c2cccc(Cl)c2)CC1`, 4.68 nM.
In turn, `CCCN(CCC)C1CCc2cccc(C(=O)C3CCCCC3)c2C1` (configuration not stated) had a Ki of 15.8 nM.

As a reminder, the Ki is a measure of affinity in units of concentration, obtained from inhibition or displacement. Low readings indicate tighter binding, high ones weaker binding.
